From patent US7973135B2, “Compositions and methods for targeting cancer-specific transcription complexes” (Oncotx, Inc., priority 2006, dated 2011)

Columns and labels:
Type in all cases: cell-based, human
WM 266-4 cells [1] = experiment: Apoptosis (Annexin V-Cy3 kit) of melanoma cells treated with peptides; conditions: for Apoptosis, result in words (summary of Table 2): 10 μM; for Apoptosis 7 days/%: peptide 10 μM
Procedure: (§1) Human melanoma cell lines SK-MEL-28 and WM-266-4 were obtained from the American Type Culture Collection (ATCC; Manassas, Va.; SK-MEL-28 deposited by T. Takehashi and subject to release terms set by The Memorial Sloan-Kettering Cancer Center; WM-266-4 deposited by M. Herlyn). Cells were cultured according to recommendations of ATCC (DMEM, 10% FCS, penicillin+streptomycin) and used in experiments after two passages in the laboratory. Cells were grown in 24 well plates, each treatment in triplicates. Cells were plated 16 hours prior treatments started. Peptides were added to the media, and media was changed every day during 7 day experiment. CPP concentration was 10 μM.
(§2) Apoptosis was analyzed using Biovision Annexin V-Cy3 Apoptosis Kit according to manufacturer's protocols.
(§3) Effects of peptide drug candidates BAF57 P12 and TRAP100 P05 on cell proliferation and apoptosis were analyzed using human melanoma cell lines SK-MEL-28 and WM 266-4. Therapeutic peptides were added at a concentration of 10 μM directly to culture media. Internalization and translocation of the therapeutic peptide(s) into the cell nucleus was studied using fluorescein labeled peptides. […] As controls we used scrambled peptides. […] Simultaneous incubation of melanoma cells with both peptides caused complete inhibition of proliferation and induction of apoptosis in almost all treated cells.

SK-MEL-28 cells [2] = experiment: as above; conditions: for Apoptosis, result in words (summary of Table 2) / Apoptosis 7 days/%: SK-MEL-28; for Apoptosis, result in words (summary of Table 2): 10 μM; for Apoptosis 7 days/%: peptide 10 μM; for Apoptosis of melanoma cells in vitro, result in words (library screening): screening of peptide libraries using SK-MEL-28
Procedure: as §1, §2, §3

WM 266-4 cells [3] = experiment: Cell proliferation (cell counting) of melanoma cells treated with peptides; conditions: for Proliferation, result in words (summary of Table 2): 10 μM; for Cell Count 7 days: peptide 10 μM in media, start count 10, 7 days
Procedure: as §1
(§4) For cell counting, cells were trypsinized (0.25% Trypsin, 2 mM EDTA) in Ca+2, Mg+2 free PBS. Cells were precipitated and resuspended in 100 μl of PBS, and 5 μl were removed for counting
as §3

SK-MEL-28 cells [4] = experiment: as above; conditions: for Proliferation, result in words (summary of Table 2) / Cell Count 7 days: SK-MEL-28; for Proliferation, result in words (summary of Table 2): 10 μM; for Cell Count 7 days: peptide 10 μM in media, start count 10; for Growth of melanoma cells in vitro, result in words (library screening): screening of peptide libraries using SK-MEL-28
Procedure: as §1, §4, §3

Sequence	Apoptosis, result in words (summary of Table 2) (WM 266-4 cells [1])	Apoptosis 7 days/% (WM 266-4 cells [1])	Apoptosis, result in words (summary of Table 2) (SK-MEL-28 cells [2])	Apoptosis 7 days/% (SK-MEL-28 cells [2])	Apoptosis of melanoma cells in vitro, result in words (library screening) (SK-MEL-28 cells [2])	Proliferation, result in words (summary of Table 2) (WM 266-4 cells [3])	Cell Count 7 days (WM 266-4 cells [3])	Proliferation, result in words (summary of Table 2) (SK-MEL-28 cells [4])	Cell Count 7 days (SK-MEL-28 cells [4])	Growth of melanoma cells in vitro, result in words (library screening) (SK-MEL-28 cells [4])
PKKRKVRRRRRRRNDRLSDGDSKYSQTSHKLVQLL (listed as Homo sapiens) [BAF57 P12, NLS-CPP-interfering peptide targeting chromatin modifying complex containing cancer specific isoform of BAF57]	induce apoptosis	59%	induce apoptosis	65%	stimulate apoptosis	suppress significantly proliferation	17	suppress significantly proliferation	16	inhibit growth of melanoma cells
PKKRKVRRRRRRRPQMQQNVFQYPGAGMVPQGEANF (listed as Homo sapiens) [TRAP100 P05, NLS-CPP-interfering peptide targeting mediator complex containing cancer specific isoform of MED24/TRAP100]	induce apoptosis	78%	induce apoptosis	78%	stimulate apoptosis	suppress significantly proliferation	15	suppress significantly proliferation	12	inhibit growth of melanoma cells
